# Structures can show the parent of a compound that is named as a salt.
# Target: α7 nAChR (Rattus norvegicus, UniProt Q05941)
# Experiment: [3H]-MLA competition binding assay, rat brain membranes
# Settings: Ki, inhibition of [3H]-MLA binding (3.0 to 4.0 nM), Sprague-Dawley rat whole brain minus cerebellum homogenate, 1 hour at 25° C
# Experimental: Membrane Preparation. Male Sprague-Dawley rats (300-350 g) are sacrificed by decapitation and the brains (whole brain minus cerebellum) are dissected quickly, weighed and homogenized in 9 volumes/g wet weight of ice-cold 0.32 M sucrose using a rotating pestle on setting 50 (10 up and down strokes). The homogenate is centrifuged at 1,000×g for 10 minutes at 4° C. The supernatant is collected and centrifuged at 20,000×g for 20 minutes at 4° C. The resulting pellet is resuspended to a protein concentration of 1-8 mg/mL. Aliquots of 5 mL homogenate are frozen at −80° C. until needed for the assay.
# Binding Assay. […] Filters are pre-soaked in 50 mm Tris HCl pH 7.0-0.05% polyethylenimine. The filters are rapidly washed two times with 5 mL aliquots of cold 0.9% saline and then counted for radioactivity by liquid
# Data Analysis. […] Hill coefficients were obtained using non-linear regression (GraphPad Prism sigmoidal dose-response with variable slope).
# Chain of α7 nAChR (Q05941 23-502): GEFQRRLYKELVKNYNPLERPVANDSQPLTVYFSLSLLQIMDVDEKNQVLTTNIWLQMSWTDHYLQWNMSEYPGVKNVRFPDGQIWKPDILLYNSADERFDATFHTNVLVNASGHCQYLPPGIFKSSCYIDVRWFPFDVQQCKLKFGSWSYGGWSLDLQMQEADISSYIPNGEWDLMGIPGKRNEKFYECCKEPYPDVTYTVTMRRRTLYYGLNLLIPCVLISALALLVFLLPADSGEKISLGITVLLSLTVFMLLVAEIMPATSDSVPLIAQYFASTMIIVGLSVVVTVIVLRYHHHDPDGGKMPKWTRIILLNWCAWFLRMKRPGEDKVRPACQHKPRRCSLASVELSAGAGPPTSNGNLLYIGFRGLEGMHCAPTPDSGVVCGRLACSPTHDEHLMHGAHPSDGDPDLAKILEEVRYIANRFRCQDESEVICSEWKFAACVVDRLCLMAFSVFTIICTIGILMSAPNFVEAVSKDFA
row,Compound,Ki [nM]
1,"COc1ccc(-c2ccc(C(=O)N[C@H]3CN4CCC3CC4)o2)cc1 [Example 134, N-[(3R)-1-azabicyclo[2.2.2]oct-3-yl]-5-(4-methoxy-phenyl)-furan-2-carboxamide hydrochloride]",60 to 100
2,"O=C(N[C@H]1CN2CCC1CC2)c1ncc(-c2ccccc2Cl)o1 [Example 86, N-[(3R)-1-azabicyclo[2.2.2]oct-3-yl]-5-(2-chlorophenyl)-1,3-oxazole-2-carboxamide 4-methylbenzenesulfonate]",30 to 40
3,"O=C(N[C@H]1CN2CCC1CC2)c1cnc(-c2ccccc2)o1 [Example 155, N-[(3R)-1-azabicyclo[2.2.2]oct-3-yl]-2-phenyl-1,3-oxazole-5-carboxamide 4-methylbenzenesulfonate]",1380
4,"COc1cccc(-c2cnc(C(=O)N[C@H]3CN4CCC3CC4)s2)c1 [Example 93, N-[(3R)-1-azabicyclo[2.2.2]oct-3-yl]-5-(3-methoxyphenyl)-1,3-thiazole-2-carboxamide 4-methylbenzenesulfonate]",40 to 45
5,"O=C(N[C@H]1CN2CCC1CC2)c1ccc(-c2ccccc2C(F)(F)F)o1 [Example 108, N-[(3R)-1-azabicyclo[2.2.2]oct-3-yl]-5-[2-(trifluoromethyl)-phenyl]-furan-2-carboxamide fumarate]",415 to 560
6,"O=C(N[C@H]1CN2CCC1CC2)c1ccc(Sc2cccc(Cl)c2)s1 [Example 35, N-[(3R)-1-azabicyclo[2.2.2]oct-3-yl]-5-(3-chlorophenyl-sulfanyl)-thiophene-2-carboxamide]",30 to 50
7,"O=C(N[C@H]1CN2CCC1CC2)c1ncc(-c2ccc(F)cc2)s1 [Example 95, N-[(3R)-1-azabicyclo[2.2.2]oct-3-yl]-5-(4-fluorophenyl)-1,3-thiazole-2-carboxamide 4-methylbenzenesulfonate]",1080
8,"O=C(N[C@H]1CN2CCC1CC2)c1ncc(-c2ccc(F)cc2)o1 [Example 85, N-[(3R)-1-azabicyclo[2.2.2]oct-3-yl]-5-(4-fluorophenyl)-1,3-oxazole-2-carboxamide 4-methylbenzenesulfonate]",30 to 40
9,"O=C(N[C@H]1CN2CCC1CC2)c1ccc(-c2ccccc2[N+](=O)[O-])s1 [Example 6, N-[(3R) 1-azabicyclo[2.2.2]oct-3-yl]-5-(2-nitrophenyl)-thiophene-2-carboxamide hydrochloride]",5 to 10
10,"O=C(N[C@H]1CN2CCC1CC2)c1ccc(-c2ccc([N+](=O)[O-])cc2)o1 [Example 112, N-[(3R)-1-azabicyclo[2.2.2]oct-3-yl]-5-(4-nitrophenyl)-furan-2-carboxamide 4-methylbenzenesulfonate]",5 to 24
11,"O=C(N[C@H]1CN2CCC1CC2)c1ccc(Br)s1 [Example 26, N-[(3R)-1-azabicyclo[2.2.2]oct-3-yl]-5-bromo-thiophene-2-carboxamide]",5 to 20
12,"O=C(N[C@H]1CN2CCC1CC2)c1ccc(-c2cc3ccccc3o2)o1 [Example 146, N-[(3R)-1-azabicyclo[2.2.2]oct-3-yl]-5-(1-benzofuran-2-yl)-furan-2-carboxamide 4-methylbenzenesulfonate]",35 to 140
13,"NCc1ccc(C(=O)N[C@H]2CN3CCC2CC3)s1 [Example 17, 5-(Aminomethyl)-N-[(3R)-1-azabicyclo[2.2.2]oct-3-yl]-thiophene-2-carboxamide Dihydrochloride]",260 to 385
14,"O=C(N[C@H]1CN2CCC1CC2)c1ccc(-c2ccc(Cl)s2)s1 [Example 15, N-[(3R)-1-Azabicyclo[2.2.2]oct-3-yl]-5′-chloro-2,2′-bithiophene-5-carboxamide Hydrochloride]",40 to 90
15,"O=C(N[C@H]1CN2CCC1CC2)c1ccc(-c2ccccc2O)s1 [Example 41, N-[(3R)-1-Azabicyclo[2.2.2]oct-3-yl]-5-(2-hydroxyphenyl)-thiophene-2-carboxamide Hydrochloride]",34
16,"O=C(N[C@H]1CN2CCC1CC2)c1ncc(-c2cccc(Cl)c2)o1 [Example 79, N-[(3R)-1-Azabicyclo[2.2.2]oct-3-yl]-5-(3-chlorophenyl)-1,3-oxazole-2-carboxamide 4-Methylbenzenesulfonate]",20 to 75

# — patent publication US6500840B2, “Quinuclidine-substituted heteroaryl moieties for treatment of disease” (Pharmacia & Upjohn Company, priority 2000, dated 2002)
